Source: PubChem BioAssay (NCI)
Several values for one entry are separate records, joined by “and”; a condition that tells them apart may be missing. Equal values may be shown once.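 Dose response: 5 concentrations. Exposure: 48 h. Format: 96-well plates. Endpoint: linear interpolation; highest concentration if not reached. Here, GI50 denotes the concentration required for 50% inhibition of growth. TGI: concentration producing complete growth inhibition.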

How the values were obtained:
Assay in all cases: growth of human tumour cells (NCI), 48 h
HOP-92 NSCLC = tested on: HOP-92 NSCLC
U251 CNS = tested on: U251 CNS
SK-MEL-2 melanoma = tested on: SK-MEL-2 melanoma
SNB-19 CNS = tested on: SNB-19 CNS
SW-620 colon = tested on: SW-620 colon
MDA-MB-435 = tested on: MDA-MB-435
NCI-H460 lung = tested on: NCI-H460 lung
NCI-H226 lung = tested on: NCI-H226 lung
NCI/ADR-RES ovarian = tested on: NCI/ADR-RES ovarian
UACC-257 melanoma = tested on: UACC-257 melanoma

Molecule `CC(=O)O.CN1[CH-]N(Cc2ccc(C#N)cc2)c2ccccc21.[Ag+]` has a GI50 (HOP-92 NSCLC) of 20.3 µM, a TGI (HOP-92 NSCLC) of 40.7 µM and a GI50 (U251 CNS) of 17.2 µM. For the same molecule, the TGI (U251 CNS) was 36.4 µM, the GI50 (SK-MEL-2 melanoma) was over 100 µM and the TGI (SK-MEL-2 melanoma) was over 100 µM. The GI50 (SNB-19 CNS) was 29.3 µM, the TGI (SNB-19 CNS) was over 100 µM and the GI50 (SW-620 colon) was 15.3 µM. For the same molecule, the TGI (SW-620 colon) was 31 µM, the GI50 (MDA-MB-435) was 16.9 µM and the TGI (MDA-MB-435) was 32 µM. For the same molecule, the GI50 (NCI-H460 lung) was over 100 µM, the TGI (NCI-H460 lung) was over 100 µM and the GI50 (NCI-H226 lung) was 16.7 µM. The TGI (NCI-H226 lung) was 50.9 µM, the GI50 (NCI/ADR-RES ovarian) was over 100 µM and the TGI (NCI/ADR-RES ovarian) was over 100 µM. It also gave a GI50 (UACC-257 melanoma) of 14.8 µM and a TGI (UACC-257 melanoma) of 29.7 µM.
`COc1ccc(Nc2nc(NCCNc3ccnc4cc(Cl)ccc34)nc(N3CCOCC3)n2)cc1` gave a GI50 (HOP-92 NSCLC) of 1.16 µM, a TGI (HOP-92 NSCLC) of 13 µM and a GI50 (U251 CNS) of 3.1 µM. For the same molecule, the TGI (U251 CNS) was 15.4 µM, the GI50 (SK-MEL-2 melanoma) was 2.19 µM and the TGI (SK-MEL-2 melanoma) was 4.28 µM. The GI50 (SNB-19 CNS) was 10.6 µM, the TGI (SNB-19 CNS) was 23.6 µM and the GI50 (SW-620 colon) was 3.47 µM. The TGI (SW-620 colon) was 13.4 µM, the GI50 (MDA-MB-435) was 1.82 µM and the TGI (MDA-MB-435) was 3.49 µM. The GI50 (NCI-H460 lung) was 4.58 µM, the TGI (NCI-H460 lung) was 19.3 µM and the GI50 (NCI-H226 lung) was 3.89 µM. The TGI (NCI-H226 lung) was 18.3 µM, the GI50 (NCI/ADR-RES ovarian) was 6.38 µM and the TGI (NCI/ADR-RES ovarian) was 24.9 µM. The GI50 (UACC-257 melanoma) was 1.87 µM and the TGI (UACC-257 melanoma) was 3.61 µM.
For `OC1CC2CCC(C1)N2CCCN1c2ccccc2Sc2ccc(Cl)cc21` (centres undefined), the TGI (HOP-92 NSCLC) was 9.39 µM, the TGI (U251 CNS) was 3.45 µM and the TGI (SK-MEL-2 melanoma) was 3.29 µM. It also gave a TGI (SNB-19 CNS) of 13.5 µM, a TGI (SW-620 colon) of 5.77 µM and a TGI (MDA-MB-435) of 3.31 µM. The TGI (NCI-H460 lung) was 3.25 µM, the TGI (NCI-H226 lung) was 15.2 µM and the TGI (NCI/ADR-RES ovarian) was 6.32 µM. It also gave a TGI (UACC-257 melanoma) of 2.6 µM.
`COc1cc2nc(N3CCCN(C)CC3)nc(NC3CCN(Cc4ccccc4)CC3)c2cc1OC` showed a GI50 (HOP-92 NSCLC) of 4.12 µM, a TGI (HOP-92 NSCLC) of 13.6 µM and a GI50 (U251 CNS) of 2.22 µM. It also gave a TGI (U251 CNS) of 5.96 µM, a GI50 (SK-MEL-2 melanoma) of 2.08 µM and a TGI (SK-MEL-2 melanoma) of 4.25 µM. The GI50 (SNB-19 CNS) was 4.28 µM, the TGI (SNB-19 CNS) was 18.1 µM and the GI50 (SW-620 colon) was 2.96 µM. It also gave a TGI (SW-620 colon) of 9.64 µM, a GI50 (MDA-MB-435) of 1.74 µM and a TGI (MDA-MB-435) of 3.22 µM. The GI50 (NCI-H460 lung) was 2.19 µM, the TGI (NCI-H460 lung) was 4.81 µM and the GI50 (NCI-H226 lung) was 2.68 µM. It also gave a TGI (NCI-H226 lung) of 9.08 µM, a GI50 (NCI/ADR-RES ovarian) of 13.4 µM and a TGI (NCI/ADR-RES ovarian) of 34.8 µM. It also gave a GI50 (UACC-257 melanoma) of 1.74 µM and a TGI (UACC-257 melanoma) of 3.36 µM.
For `Oc1ccccc1-c1nn(CNc2ccc(Cl)cc2)c(=S)o1`, the GI50 (HOP-92 NSCLC) was 88.8 µM, the TGI (HOP-92 NSCLC) was over 100 µM and the GI50 (U251 CNS) was 31.9 µM. It also gave a TGI (U251 CNS) of over 100 µM, a GI50 (SK-MEL-2 melanoma) of over 100 µM and a TGI (SK-MEL-2 melanoma) of over 100 µM. The GI50 (SNB-19 CNS) was over 100 µM, the TGI (SNB-19 CNS) was over 100 µM and the GI50 (SW-620 colon) was 22.4 µM. The TGI (SW-620 colon) was over 100 µM, the GI50 (MDA-MB-435) was 3.21 µM and the TGI (MDA-MB-435) was over 100 µM. The GI50 (NCI-H460 lung) was 25.7 µM, the TGI (NCI-H460 lung) was over 100 µM and the GI50 (NCI-H226 lung) was 14.1 µM. The TGI (NCI-H226 lung) was over 100 µM, the GI50 (NCI/ADR-RES ovarian) was 18.9 µM and the TGI (NCI/ADR-RES ovarian) was 79.7 µM. The GI50 (UACC-257 melanoma) was 20.6 µM and the TGI (UACC-257 melanoma) was 47.9 µM.
`CCOC(=O)c1[nH]c2cc(Cl)ccc2c1[C@@H](C(=O)NC(C)(C)C)N(CC)C(=O)CCCCC#Cc1cccc2c1CN(C1CCC(=O)NC1=O)C2=O` (some centres undefined) gave a GI50 (HOP-92 NSCLC) of under 0.01 µM, a TGI (HOP-92 NSCLC) of under 0.0238 µM and a GI50 (U251 CNS) of 1.84 µM. The TGI (U251 CNS) was 18.1 µM, the GI50 (SK-MEL-2 melanoma) was 1.47 µM and the TGI (SK-MEL-2 melanoma) was 4.15 µM. The GI50 (SNB-19 CNS) was 0.0731 µM, the TGI (SNB-19 CNS) was 34.5 µM and the GI50 (SW-620 colon) was under 0.01 µM. The TGI (SW-620 colon) was over 100 µM, the GI50 (MDA-MB-435) was 2.34 µM and the TGI (MDA-MB-435) was over 31.7 µM. The GI50 (NCI-H460 lung) was 3.11 µM, the TGI (NCI-H460 lung) was over 54.3 µM and the GI50 (NCI-H226 lung) was 0.0343 µM. It also gave a GI50 (NCI/ADR-RES ovarian) of 1.19 µM, a TGI (NCI/ADR-RES ovarian) of over 100 µM and a GI50 (UACC-257 melanoma) of 3.05 µM. The TGI (UACC-257 melanoma) was over 87.5 µM.
Molecule `COc1cc(CCC[P+](c2ccccc2)(c2ccccc2)c2ccccc2)c(OC)c2c1OCO2` has a GI50 (HOP-92 NSCLC) of 1.15 µM, a TGI (HOP-92 NSCLC) of 6.88 µM and a GI50 (U251 CNS) of 1.63 µM. It also gave a TGI (U251 CNS) of 17.5 µM, a GI50 (SK-MEL-2 melanoma) of 1.9 µM and a TGI (SK-MEL-2 melanoma) of 10.5 µM. The GI50 (SNB-19 CNS) was 1.17 µM, the TGI (SNB-19 CNS) was 10.9 µM and the GI50 (SW-620 colon) was 1.83 µM. The TGI (SW-620 colon) was 11.4 µM, the GI50 (MDA-MB-435) was 0.494 µM and the TGI (MDA-MB-435) was 5.91 µM. For the same molecule, the GI50 (NCI-H460 lung) was 1.81 µM, the TGI (NCI-H460 lung) was 5.58 µM and the GI50 (NCI-H226 lung) was 3.13 µM. For the same molecule, the TGI (NCI-H226 lung) was 21.3 µM, the GI50 (NCI/ADR-RES ovarian) was 77.5 µM and the TGI (NCI/ADR-RES ovarian) was over 100 µM. For the same molecule, the GI50 (UACC-257 melanoma) was 0.378 µM and the TGI (UACC-257 melanoma) was 6.44 µM.
With `O=C(O)Cc1cccc2c(=O)cc(-c3ccccc3)oc12` the GI50 (HOP-92 NSCLC) was 43.9 µM and 318 µM, the TGI (HOP-92 NSCLC) was 178 µM and > 948 µM and the GI50 (U251 CNS) was 360 µM. For the same molecule, the TGI (U251 CNS) was over 1000 µM, the GI50 (SK-MEL-2 melanoma) was 844 µM and the TGI (SK-MEL-2 melanoma) was 250 µM and > 1000 µM. It also gave a GI50 (SNB-19 CNS) of over 909 µM, a TGI (SNB-19 CNS) of over 1000 µM and a GI50 (SW-620 colon) of 313 µM. It also gave a TGI (SW-620 colon) of over 1000 µM, a GI50 (MDA-MB-435) of 518 µM and a TGI (MDA-MB-435) of over 1000 µM. For the same molecule, the GI50 (NCI-H460 lung) was 545 µM, the TGI (NCI-H460 lung) was over 1000 µM and the GI50 (NCI-H226 lung) was 363 µM. The TGI (NCI-H226 lung) was 250 µM and > 1000 µM, the GI50 (NCI/ADR-RES ovarian) was 194 µM and the TGI (NCI/ADR-RES ovarian) was 250 µM and > 1000 µM. For the same molecule, the GI50 (UACC-257 melanoma) was 614 µM and the TGI (UACC-257 melanoma) was over 1000 µM.
